Target: T1, rat NaP2b (SLC34A2) (Rattus norvegicus, UniProt Q9JJ09)
T1 construct: host or cells: HEK293
T1 sequence (Q9JJ09 1-695): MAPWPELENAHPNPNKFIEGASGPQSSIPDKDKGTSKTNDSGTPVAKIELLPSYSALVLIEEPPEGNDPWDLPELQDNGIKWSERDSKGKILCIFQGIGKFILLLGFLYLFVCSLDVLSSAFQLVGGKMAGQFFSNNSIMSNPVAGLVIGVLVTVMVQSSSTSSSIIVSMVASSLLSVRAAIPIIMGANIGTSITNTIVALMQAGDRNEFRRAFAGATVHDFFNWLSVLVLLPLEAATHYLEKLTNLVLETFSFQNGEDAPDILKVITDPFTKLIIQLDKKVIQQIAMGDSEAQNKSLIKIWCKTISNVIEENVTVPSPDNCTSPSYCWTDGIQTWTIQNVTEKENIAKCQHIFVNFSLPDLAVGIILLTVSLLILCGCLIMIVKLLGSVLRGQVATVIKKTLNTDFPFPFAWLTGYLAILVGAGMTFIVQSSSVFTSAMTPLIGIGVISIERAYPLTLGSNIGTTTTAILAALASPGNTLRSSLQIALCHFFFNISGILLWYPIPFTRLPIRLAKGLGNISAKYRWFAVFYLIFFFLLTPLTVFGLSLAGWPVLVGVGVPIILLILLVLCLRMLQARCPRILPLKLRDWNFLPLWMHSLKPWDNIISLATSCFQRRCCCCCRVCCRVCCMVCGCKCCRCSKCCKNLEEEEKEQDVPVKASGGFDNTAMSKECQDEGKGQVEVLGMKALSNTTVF
Test: Inhibition of NaP2b-mediated Pi (33P) uptake in transfected HEK293 cells, rat NaP2b
Format: cell-based
Details: HEK293 cells transfected with rat NaP2b, 100 uM phosphate, 0.1 nM to 30 uM, read-out: pIC50 range for rat Nap2b (converted)
Description: HEK293 cells were obtained from the American Type Culture collection and propagated per their instructions. Expression clones for rat and human NaP2b (SLC34A2) were obtained from Open Biosystems (Catalog numbers MRN1768-9510282, and MHS1010-99823026, respectively). The sequence of the human protein was mutated to insert a threonine after residue 37, and to introduce a N39D mutation.
Cells were seeded into 96-well plates at 25,000 cells/well and cultured overnight. Lipofectamine 2000 (Invitrogen) was used to introduce the NaP2b cDNA, and the cells were allowed to approach confluence during a second overnight incubation. […] Cells were then overlayed with either choline uptake buffer or sodium uptake buffer (14 mM Tris, 137 mM sodium chloride, 5.4 mM KCl, 2.8 mM CaCl2, 1.2 mM MgSO4, 100 uM KH2PO4, PiT-silencing agent, 1 mg/mL Bovine Serum Albumin, pH 7.4) containing 6-9 uCi/mL ^33P orthophosphoric acid (Perkin Elmer) and test compound. Each compound was tested at twelve concentrations ranging from 0.1 nM to 30 uM. Assays were run in duplicate.
Cells were lysed by addition of 20 μL 0.1% Tween 80 followed by 100 μL scintillation fluid, and counted using a TopCount (Perkin Elmer).
pIC50 (the negative log of the […]) values of the test compounds were calculated using GraphPad Prism.

Row | SMILES | IC50 [µM]
1 | CCCN(CCC)c1ccc(NC(=O)c2cccc(CSCCC(=O)O)c2)c(-c2cc(C(=O)NCc3cccc(C(F)(F)F)c3)ccn2)c1 [Example 19, 3-((3-((4-(Dipropylamino)-2-(4-((3-(trifluoromethyl)benzyl)carbamoyl)pyridin-2-yl)phenyl)carbamoyl)benzyl)thio)propanoic acid] | 1 to 7.94
2 | CCN(CC)c1ccc(NC(=O)c2cccc(C(=O)N(C)CCN(C)CCOCCOCCOCCNC(=O)C(C)(C)C)c2)c(-c2cc(C(=O)NCc3cccc(C(F)(F)F)c3)ccn2)c1 [Example 346, N^1-(4-(diethylamino)-2-(4-(3-(trifluoromethyl)benzylcarbamoyl)pyridin-2-yl)phenyl)-N^3-methyl-N^3-(3,17,17-trimethyl-16-oxo-6,9,12-trioxa-3,15-diazaoctadecyl)isophthalamide] | 1 to 7.94
3 | O=C(O)CCSCc1cccc(C(=O)Nc2ccc(N3CCSCC3)cc2-c2cc(C(=O)NCc3cccc(C(F)(F)F)c3)ccn2)c1 [Example 27, 3-((3-((4-Thiomorpholino-2-(4-((3-(trifluoromethyl)benzyl)carbamoyl)pyridin-2-yl)phenyl)carbamoyl)benzyl)thio)propanoic acid] | 1 to 7.94
4 | CC(=O)N1CCN(Cc2cccc(C(=O)Nc3ccc(N4CCCCC4)cc3-c3cc(C(=O)NCc4cccc(C(F)(F)F)c4)ccn3)c2)CC1 [Example 50, 2-(2-(3-((4-Acetylpiperazin-1-yl)methyl)benzamido)-5-(piperidin-1-yl)phenyl)-N-(3-(trifluoromethyl)benzyl)isonicotinamide] | 1 to 7.94
5 | CN(CCN1CCOCC1)C(=O)c1cccc(C(=O)Nc2ccc(N3CCCCC3)cc2-c2cc(-c3cn(Cc4ccccc4)nn3)ccn2)c1 [Example 24, N1-(2-(4-(1-Benzyl-1H-1,2,3-triazol-4-yl)pyridin-2-yl)-4-(piperidin-1-yl)phenyl)-N3-methyl-N3-(2-morpholinoethyl)isophthalamide] | 1 to 7.94
6 | CCOc1ccc(NC(=O)c2cccc(CSCCC(=O)O)c2)c(-c2cc(C(=O)NCc3cccc(C(F)(F)F)c3)ccn2)c1 [Example 29, 3-((3-((4-Ethoxy-2-(4-((3-(trifluoromethyl)benzyl)carbamoyl)pyridin-2-yl)phenyl)carbamoyl)benzyl)thio)propanoic acid] | 1 to 7.94
7 | CC(=O)N1CCN(CCN(C)Cc2cccc(C(=O)Nc3ccc(N4CCCCC4)cc3-c3cc(C(=O)NCc4ccccc4)ccn3)c2)CC1 [Example 41, 2-(2-(3-(((2-(4-Acetylpiperazin-1-yl)ethyl)(methyl)amino)methyl)benzamido)-5-(piperidin-1-yl)phenyl)-N-benzylisonicotinamide] | 10 to 31.6
8 | O=C(O)CCSCc1cccc(C(=O)Nc2ccc(N3CCCCC3)cc2-c2cc(C(=O)N3CCCC3c3ccccc3)ccn2)c1 (stereo not shown) [Example 1.9] | 10 to 31.6
9 | O=C(O)CCSCc1cccc(C(=O)Nc2ccc(N3CCCCC3)cc2-c2cc(C(=O)NCCCCCCCCCCCCNC(=O)c3ccnc(-c4cc(N5CCCCC5)ccc4NC(=O)c4cccc(CSCCC(=O)O)c4)c3)ccn2)c1 [Example 2] | 10 to 31.6
10 | COCCNC(=O)CCN(C)Cc1cccc(C(=O)Nc2ccc(N3CCCCC3)cc2-c2cc(C(=O)NCc3cccc(C(F)(F)F)c3)ccn2)c1 [Example 51, 2-(2-(3-(((3-((2-Methoxyethyl)amino)-3-oxopropyl)(methyl)amino)methyl)benzamido)-5-(piperidin-1-yl)phenyl)-N-(3-(trifluoromethyl)benzyl)isonicotinamide] | 1 to 7.94

From patent US9301951B2 (Ardelyx, Inc., priority 2010, dated 2016)
